# Source: US20220153766A1, “CONDENSED TRICYCLIC COMPOUND USED AS KINASE INHIBITOR” (Hangzhou Innogate Pharma Co., Ltd., priority 2019, published 2022)
# Assays:
# [1] = target: T1, Ba/F3_EGFR del19/T790M/C797S cells (Homo sapiens, UniProt P00533, T790M/C797S, cells depend on it, form not given); assay: Ba/F3_EGFR (del19-T790M-C797S) cell proliferation inhibition, CTG, method 1; type: cell-based; conditions: 700 cells/well, 72 h, read-out: Ba/F3_EGFR (del19-T790M-C797S) cell proliferation inhibition (IC50 value) Method 1
# T1 sequence (P00533 with tags, fused parts or gaps DEL746-750/T790M/C797S, form open): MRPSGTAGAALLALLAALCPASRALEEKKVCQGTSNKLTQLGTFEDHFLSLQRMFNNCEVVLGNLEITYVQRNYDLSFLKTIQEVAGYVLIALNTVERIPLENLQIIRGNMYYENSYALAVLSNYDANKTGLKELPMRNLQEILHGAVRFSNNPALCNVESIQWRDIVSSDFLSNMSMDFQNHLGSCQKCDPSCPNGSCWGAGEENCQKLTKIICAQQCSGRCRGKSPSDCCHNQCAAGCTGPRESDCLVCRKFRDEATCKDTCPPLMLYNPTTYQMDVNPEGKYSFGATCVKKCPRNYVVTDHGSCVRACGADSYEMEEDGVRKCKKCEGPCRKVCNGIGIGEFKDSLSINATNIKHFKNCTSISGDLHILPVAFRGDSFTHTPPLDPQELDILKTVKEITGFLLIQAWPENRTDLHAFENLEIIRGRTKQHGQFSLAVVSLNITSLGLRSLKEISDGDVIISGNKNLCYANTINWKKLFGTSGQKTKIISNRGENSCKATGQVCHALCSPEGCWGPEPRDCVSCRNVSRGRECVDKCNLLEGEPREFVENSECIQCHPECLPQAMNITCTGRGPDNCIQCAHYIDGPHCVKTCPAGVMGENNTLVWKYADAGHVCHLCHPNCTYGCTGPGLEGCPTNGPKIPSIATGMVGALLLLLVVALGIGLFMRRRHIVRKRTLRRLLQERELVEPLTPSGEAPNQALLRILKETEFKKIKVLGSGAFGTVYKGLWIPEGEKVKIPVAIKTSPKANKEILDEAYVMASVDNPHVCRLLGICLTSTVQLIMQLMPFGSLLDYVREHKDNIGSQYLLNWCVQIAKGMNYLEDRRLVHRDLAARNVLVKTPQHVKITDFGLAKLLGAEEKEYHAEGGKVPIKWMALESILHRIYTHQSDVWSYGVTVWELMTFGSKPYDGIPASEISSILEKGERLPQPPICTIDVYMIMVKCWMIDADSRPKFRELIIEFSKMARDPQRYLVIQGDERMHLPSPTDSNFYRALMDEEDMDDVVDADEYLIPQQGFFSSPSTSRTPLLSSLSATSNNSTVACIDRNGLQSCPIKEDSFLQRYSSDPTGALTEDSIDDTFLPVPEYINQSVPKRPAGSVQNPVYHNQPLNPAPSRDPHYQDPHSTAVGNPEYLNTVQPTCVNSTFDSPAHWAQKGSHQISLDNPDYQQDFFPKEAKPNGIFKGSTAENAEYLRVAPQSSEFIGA
# Description: The cells were cultured in a 37° C., 5% CO2 incubator.
# Cell plating and compound treatment: 1) Cells are routinely cultured until the cell saturation is 80%-90%, and when the number reaches the requirement, the cells are collected. 2) Resuspend in the corresponding fresh medium, take a small amount of cells to count, and prepare a cell suspension with a suitable density. 3) Inoculate the cell suspension into a 384-well plate at 700 cells/well, 30 μL per well. 4) Use Echo to add the compound to the corresponding cell well. The maximum starting concentration of the compound is 1-10 μM, 3 folds dilution, 8 concentrations.
# CTG method detection: 1) Add 30 μL of CTG reagent (CelltiterGlo kit) to each well, and let it stand for 30 minutes at 37° C. and 5% CO2 in the dark. 2) Use Envision instrument to read the chemiluminescence signal value.
# Data analysis: IC50 results are analyzed by GraphPad Prism 6 software. […] X: log value of compound concentration; Y: inhibition rate (% inhibition); inhibition rate (% inhibition)=(blank control well reading−compound well reading)/(blank control well reading−positive control reading)×100.
# ALK = ALK (Homo sapiens, UniProt Q9UM73); assay: ALK kinase activity inhibition, Caliper mobility shift assay, method 2; type: biochemical; conditions: ALK 1.25 nM, ATP 30 μM
# ALK, sequence (Q9UM73 19-1620): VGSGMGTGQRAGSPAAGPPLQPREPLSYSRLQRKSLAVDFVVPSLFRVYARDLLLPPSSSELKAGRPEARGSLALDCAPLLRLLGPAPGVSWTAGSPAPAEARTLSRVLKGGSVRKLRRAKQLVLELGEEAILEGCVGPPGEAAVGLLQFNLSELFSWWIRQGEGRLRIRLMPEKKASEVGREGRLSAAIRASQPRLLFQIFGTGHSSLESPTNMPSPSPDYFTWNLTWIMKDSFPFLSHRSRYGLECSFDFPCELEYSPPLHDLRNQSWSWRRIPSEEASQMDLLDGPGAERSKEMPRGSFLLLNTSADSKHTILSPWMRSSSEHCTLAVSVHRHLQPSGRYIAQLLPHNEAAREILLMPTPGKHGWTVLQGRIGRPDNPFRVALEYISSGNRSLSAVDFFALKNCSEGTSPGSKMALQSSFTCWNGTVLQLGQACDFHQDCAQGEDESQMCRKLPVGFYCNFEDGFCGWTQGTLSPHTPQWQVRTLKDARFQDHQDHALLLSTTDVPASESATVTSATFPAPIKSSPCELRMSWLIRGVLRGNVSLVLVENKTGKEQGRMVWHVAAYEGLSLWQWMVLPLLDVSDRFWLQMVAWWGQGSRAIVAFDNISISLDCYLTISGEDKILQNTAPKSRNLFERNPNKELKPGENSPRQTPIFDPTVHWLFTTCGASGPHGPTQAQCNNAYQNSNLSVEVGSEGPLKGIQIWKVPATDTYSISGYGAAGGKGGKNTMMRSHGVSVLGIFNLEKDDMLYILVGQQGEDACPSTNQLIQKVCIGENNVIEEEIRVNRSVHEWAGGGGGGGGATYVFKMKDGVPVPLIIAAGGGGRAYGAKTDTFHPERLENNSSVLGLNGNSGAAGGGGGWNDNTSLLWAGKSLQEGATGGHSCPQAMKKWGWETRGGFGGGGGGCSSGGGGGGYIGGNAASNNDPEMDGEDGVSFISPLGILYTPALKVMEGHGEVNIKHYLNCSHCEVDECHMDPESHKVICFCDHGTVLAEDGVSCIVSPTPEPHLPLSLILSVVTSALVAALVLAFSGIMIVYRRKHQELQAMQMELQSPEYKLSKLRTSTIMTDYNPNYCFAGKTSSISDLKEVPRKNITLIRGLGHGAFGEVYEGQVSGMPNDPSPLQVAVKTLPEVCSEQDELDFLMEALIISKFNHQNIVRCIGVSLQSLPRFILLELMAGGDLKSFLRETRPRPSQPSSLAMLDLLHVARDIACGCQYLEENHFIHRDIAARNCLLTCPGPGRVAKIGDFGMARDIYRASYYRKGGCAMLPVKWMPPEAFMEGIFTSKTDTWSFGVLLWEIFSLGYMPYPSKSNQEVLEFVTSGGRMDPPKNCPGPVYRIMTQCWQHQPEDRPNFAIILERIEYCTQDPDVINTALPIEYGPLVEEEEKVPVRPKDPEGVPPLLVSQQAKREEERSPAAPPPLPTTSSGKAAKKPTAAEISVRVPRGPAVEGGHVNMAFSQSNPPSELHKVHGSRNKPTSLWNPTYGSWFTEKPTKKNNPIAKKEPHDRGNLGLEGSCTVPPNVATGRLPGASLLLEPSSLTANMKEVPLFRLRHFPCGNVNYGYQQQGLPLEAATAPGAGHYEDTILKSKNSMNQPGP
# Description: 2. ALK Kinase Activity Inhibition Experiment:
# Method 2: Caliper mobility shift assay was used to measure ALK protein kinase activity. The method is basically the same as method 1, with individual parameters adjusted. The initial concentration of the compound is 1 mM, and sequentially diluted 4-fold to make 6 points (7 points for some individual compounds). Use a dispenser Echo 550 to transfer 250 nL of 100-fold final concentration of the compound to the target plate 3573, add 10 μL ALK with final concentration of 1.25 nM, incubate at room temperature for 10 minutes (the negative control well contains 10 μL kinase buffer and 250 nL 100% DMSO; the positive control well contains 10 μL kinase solution and 250 nL 100% DMSO). On the kinase ALK, add 15 μL of ATP with a final concentration of 30 μM and 3 μM of the substrate peptide No. 22 mixed solution to react for 25 minutes; add 30 μL of stop detection solution containing EDTA to stop the kinase reaction. Use Caliper EZ Reader to read the conversion rate. Inhibition rate %=(Average positive control conversion rate %−Sample conversion rate %/(Average positive control conversion rate %−Average negative control conversion rate %). Among them: negative control wells represent the conversion rate readings without enzyme activity; positive control wells represent the conversion rate readings of wells without compound inhibition. Take the log value of the concentration as the X-axis, and the percentage inhibition rate on the Y-axis. Log (inhibitor) vs. response—Variable slope of analysis software GraphPad Prism 5 was used to fit the curve to obtain the IC50 value of each compound on the enzyme activity. Calculation formula: Y=Bottom+(Top−Bottom)/(1+10^((Log IC50−X)*HillSlope)).
# [2] = Pharmacokinetic study in rats after intragastrical administration; type: in vivo; conditions: male, rat, plasma, po, SD rats, 3 mg/kg; for AUC(0-t): read-out: AUC0-24 h
# Description: Example 55: Pharmacokinetic Study in Rats
# Instruments: XEVO TQ-S LC/MS instrument produced by Waters. All measurement data is collected and processed by Masslynx V4.1 software, and the data is calculated and processed by Microsoft Excel. Using WinNonLin 8.0 software, the statistical moment method was used to calculate the pharmacokinetic parameters. Mainly include kinetic parameters Tmax, T1/2, Cmax, AUClast etc. […] Injection volume: 5 μL.
# Animals: 3 male SD rats with a weight range of 200-220 g. After purchase, they will be kept in the laboratory of the Experimental Animal Center for 2 days and then used. They will be fasted for 12 hours predose and 4 hours after dosing. Drinking water is free during the test. After the rats were gavage, blood samples were taken according to the established time point.
# Solvent: 0.5% Methylcellulose (aqueous solution containing 0.4% Tween 80 and 1% ethanol). Preparation of the solution for intragastrical administration: accurately weigh the compound, add it to the solvent, and ultrasonically at room temperature for 5 minutes to completely dissolve the drug, and prepare a 0.3 mg/ml medicinal solution.
# Pharmaceutical samples: representative compounds of the structure shown in the patented formula (I) of the present invention, generally, multiple samples with similar structures (with a molecular weight difference of more than 2 units) are taken, accurately weighed, and administered together (cassette PK). In this way, multiple compounds can be screened at the same time and their oral absorption rates can be compared. A single administration was also used to study the pharmacokinetics of the drug sample in rats.
# After intragastrical administration, blood was taken from the orbit at 0.25, 0.5, 1, 2, 4, 9, 12 and 24 hours, and placed in a plastic centrifuge tube pretreated with sodium heparin. After centrifugation, the supernatant plasma was used for LC-MS/MS analysis.
# Accurately weigh the compounds to prepare different concentrations, perform quantitative analysis on mass spectrometry to establish a standard curve, and then test the concentration of the above-mentioned compound in the plasma to obtain the compound concentration at different time points. All measurement data are collected and processed by relevant software, and the statistical moment method is used to calculate the pharmacokinetic parameters (mainly including kinetic parameters Tmax, T1/2, Cmax, AUClast etc). The results are as follows:
# Table 7: Pharmacokinetic Parameters of the Compounds after Intragastrical Administration in SD Rats
# EGFR (T790M/L858R/C797S) = EGFR (T790M/L858R/C797S) (Homo sapiens, UniProt P00533, C797S/L858R/T790M); assay: EGFR (T790M/L858R/C797S) kinase activity inhibition, Caliper mobility shift assay; type: biochemical; conditions: kinase 2.5 nM, ATP 40 μM
# EGFR (T790M/L858R/C797S), sequence (P00533 25-1210 T790M/C797S/L858R): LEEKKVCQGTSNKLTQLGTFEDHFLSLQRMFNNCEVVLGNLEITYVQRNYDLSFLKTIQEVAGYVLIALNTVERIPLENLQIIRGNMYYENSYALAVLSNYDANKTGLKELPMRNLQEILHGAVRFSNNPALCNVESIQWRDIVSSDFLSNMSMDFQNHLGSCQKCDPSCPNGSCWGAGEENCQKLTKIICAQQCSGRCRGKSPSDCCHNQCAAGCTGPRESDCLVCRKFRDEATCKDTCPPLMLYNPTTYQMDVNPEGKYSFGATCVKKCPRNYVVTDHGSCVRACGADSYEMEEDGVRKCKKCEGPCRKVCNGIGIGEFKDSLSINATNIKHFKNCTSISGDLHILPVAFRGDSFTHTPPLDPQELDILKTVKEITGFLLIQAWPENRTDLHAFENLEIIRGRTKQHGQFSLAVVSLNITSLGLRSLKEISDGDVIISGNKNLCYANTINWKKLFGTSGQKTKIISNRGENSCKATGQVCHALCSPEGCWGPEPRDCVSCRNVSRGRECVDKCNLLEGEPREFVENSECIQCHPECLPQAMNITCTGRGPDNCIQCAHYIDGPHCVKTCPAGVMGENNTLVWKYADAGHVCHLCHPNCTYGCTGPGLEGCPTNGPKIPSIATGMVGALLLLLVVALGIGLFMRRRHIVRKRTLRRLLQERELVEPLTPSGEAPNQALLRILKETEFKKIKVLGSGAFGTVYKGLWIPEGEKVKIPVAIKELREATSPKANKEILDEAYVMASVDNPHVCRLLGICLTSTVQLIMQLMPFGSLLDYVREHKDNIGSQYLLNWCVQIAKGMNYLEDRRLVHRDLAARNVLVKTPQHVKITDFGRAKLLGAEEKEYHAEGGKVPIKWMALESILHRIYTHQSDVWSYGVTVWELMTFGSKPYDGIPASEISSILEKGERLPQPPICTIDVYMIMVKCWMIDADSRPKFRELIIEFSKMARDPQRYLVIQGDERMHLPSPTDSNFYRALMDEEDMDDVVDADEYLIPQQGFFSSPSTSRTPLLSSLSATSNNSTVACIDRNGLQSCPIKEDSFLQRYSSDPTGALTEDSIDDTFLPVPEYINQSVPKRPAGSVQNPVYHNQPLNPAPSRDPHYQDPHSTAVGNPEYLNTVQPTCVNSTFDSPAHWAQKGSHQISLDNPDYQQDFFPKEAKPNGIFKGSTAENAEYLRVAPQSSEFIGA
# Description: The basic method is the same as ALK activity test method 2. The test concentration of the compound starts at 2 μM, and is diluted 5 folds into 6 (7 for individual compounds) concentration points. […] Add 30 μL of stop solution containing EDTA to stop the kinase reaction. Use Caliper EZ Reader to read the conversion rate. Inhibition rate %=(Average positive control conversion rate %−Sample conversion rate %/(Average positive control conversion rate %−Average negative control conversion rate %). Among them: negative control wells represent the conversion rate readings without enzyme activity; positive control wells represent the conversion rate readings of wells without compound inhibition. Take the log value of the concentration as the X-axis, and the percentage inhibition rate on the Y-axis. Log (inhibitor) vs. response—Variable slope of analysis software GraphPad Prism 5 was used to fit the curve to obtain the IC50 value of each compound on the enzyme activity. Calculation formula: Y=Bottom+(Top−Bottom)/(1+10^((Log IC50−X)*HillSlope)).
# MAP4K1 (HPK1) = MAP4K1 (HPK1) (Homo sapiens, UniProt Q92918); assay: MAP4K1 (HPK1) kinase activity inhibition, Caliper mobility shift assay; type: biochemical; conditions: kinase 1.25 nM, ATP 10.1 μM
# MAP4K1 (HPK1), sequence (Q92918 whole entry): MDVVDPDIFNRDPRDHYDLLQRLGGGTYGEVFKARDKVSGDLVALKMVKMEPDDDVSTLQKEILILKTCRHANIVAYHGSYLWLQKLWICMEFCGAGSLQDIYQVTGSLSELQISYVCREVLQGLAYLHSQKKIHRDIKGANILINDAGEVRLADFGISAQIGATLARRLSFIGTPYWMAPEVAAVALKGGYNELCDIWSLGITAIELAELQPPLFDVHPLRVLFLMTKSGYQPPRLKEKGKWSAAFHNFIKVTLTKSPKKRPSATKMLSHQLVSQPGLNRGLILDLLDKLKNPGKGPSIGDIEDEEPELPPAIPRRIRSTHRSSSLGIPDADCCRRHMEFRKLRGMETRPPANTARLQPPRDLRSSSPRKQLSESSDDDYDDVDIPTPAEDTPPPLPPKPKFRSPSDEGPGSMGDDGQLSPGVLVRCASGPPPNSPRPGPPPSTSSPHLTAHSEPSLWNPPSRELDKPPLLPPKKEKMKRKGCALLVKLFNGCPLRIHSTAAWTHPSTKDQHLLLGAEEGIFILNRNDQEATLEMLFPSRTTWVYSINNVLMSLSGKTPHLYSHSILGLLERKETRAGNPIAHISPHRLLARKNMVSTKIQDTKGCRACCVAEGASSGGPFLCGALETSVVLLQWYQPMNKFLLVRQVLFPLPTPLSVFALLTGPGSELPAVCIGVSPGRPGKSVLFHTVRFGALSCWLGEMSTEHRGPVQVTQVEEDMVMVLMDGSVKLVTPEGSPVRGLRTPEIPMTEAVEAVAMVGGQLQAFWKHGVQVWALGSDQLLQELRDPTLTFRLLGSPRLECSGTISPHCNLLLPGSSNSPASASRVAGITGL
# Description: 4. MAP4K1 (HPK1) Kinase Activity Inhibition Experiment: Caliper mobility shift assay was used to detect the inhibitory effect of the compound on MAP4K1 (HPK1) kinase activity. The test concentration of the compound starts at 500 nM, and is diluted 5 folds into 5 concentration points. Use a dispenser Echo 550 to transfer 250 nL 100-fold final concentration of the compound to the target plate 3573, add 10 μL of MAP4K1 (HPK1) kinase solution with a final concentration of 1.25 nM, and incubate for 10 minutes at room temperature (the negative control well contains 10 μL kinase buffer and 250 nL 100% DMSO; the positive control well contains 10 μL kinase solution and 250 nL 100% DMSO). On the kinase MAP4K1 (HPK1), add 15 μL of ATP with a final concentration of 10.1 μM and 3 μM substrate peptide No. 25 mixed solution to react for 120 minutes. Add 30 μL of stop solution containing EDTA to stop the kinase reaction. Use Caliper EZ Reader to read the conversion rate. Inhibition rate %=(Average positive control conversion rate %−Sample conversion rate %/(Average positive control conversion rate %−Average negative control conversion rate %). Among them: negative control wells represent the conversion rate readings without enzyme activity; positive control wells represent the conversion rate readings of wells without compound inhibition. Take the log value of the concentration as the X-axis, and the percentage inhibition rate on the Y-axis. Log (inhibitor) vs. response—Variable slope of analysis software GraphPad Prism 5 was used to fit the curve to obtain the IC50 value of each compound on the enzyme activity. Calculation formula: Y=Bottom+(Top−Bottom)/(1+10 ^((Log IC50−X)*HillSlope)).
# [3] = target: T1, Ba/F3_EGFR del19/T790M/C797S cells; assay: Ba/F3_EGFR (del19-T790M-C797S) cell proliferation inhibition, CTG, method 2; type: cell-based; conditions: 2000 cells/well, 72 h, read-out: Ba/F3_EGFR (del19-T790M-C797S) cell proliferation inhibition (IC50 value) Method 2
# Description: Take a small amount of cells and count them with ViCell. 2) Adjust the cell density, inoculate the cells in a 384-well plate at 2000/well, and incubate in a 37° C., 5% CO2 incubator for 4 hours. 3) Set up the program of Tecan HP D300, add the compound to the well plate. The maximum initial concentration of the compound is 1-4 μM, 3 folds dilution, 9 concentrations, and the DMSO content in each well is unified to 0.2%.
# CTG method detection: 1) Take out the CTG reagent and cell plate and equilibrate at room temperature for 30 min, add 25 μL CTG to each well, shake at medium speed for 2 min, centrifuge at 1000 rpm for 1 minutes, and stand still at room temperature for 10 minutes. 2) Envision instrument reads the chemiluminescence signal value.
# Data analysis: IC50 results are analyzed by IDBS's XL-fit 5.0 software.
Structure (SMILES),GI50 [1] [nM],IC50 (ALK) [nM],Cmax [2] [µg/mL],Tmax [2] [h],half-life [2] [h],AUC(0-t) [2] [µg·h/mL],IC50 (EGFR (T790M/L858R/C797S)) [nM],IC50 (MAP4K1 (HPK1)) [nM],GI50 [3] [nM]
Cc1cc(Nc2ncc(Cl)c(Nc3ccccc3P(C)(C)=O)n2)cc2c1N1CCN(C)C[C@@H]1CO2 [Compound 25R],< 20,1 to 50,0.0614,6.33,6.75,0.585,< 3,≤ 1,
Cc1cc(Nc2ncc(Cl)c(Nc3ccccc3P(C)(C)=O)n2)cc2c1N1CCN(C3CCOCC3)C[C@@H]1CO2 [Compound 31R],,1 to 50,0.0784,6.33,5.18,0.687,< 3,≤ 1,20 to 100
C=CC(=O)N1CCN2c3c(C)cc(Nc4ncc(Cl)c(Nc5ccccc5P(C)(C)=O)n4)cc3OC[C@H]2C1 [Compound 26R],< 20,1 to 50,,,,,3 to 15,≤ 1,

# Second part, the compound after the results:
GI50 [1] [nM],IC50 (ALK) [nM],Cmax [2] [µg/mL],Tmax [2] [h],half-life [2] [h],AUC(0-t) [2] [µg·h/mL],IC50 (EGFR (T790M/L858R/C797S)) [nM],IC50 (MAP4K1 (HPK1)) [nM],GI50 [3] [nM],Structure (SMILES)
,1 to 50,0.14,10,5.2,2.1,< 3,≤ 1,< 20,Cc1cc(Nc2ncc(Cl)c(Nc3ccccc3P(C)(C)=O)n2)cc2c1N1CCN(C3CCN(C)CC3)C[C@H]1CO2 [Compound 27S]
,1 to 50,,,,,< 3,≤ 1,20 to 100,CCN1CCC(N2CCN3c4c(C)cc(Nc5ncc(Cl)c(Nc6ccccc6P(C)(C)=O)n5)cc4OC[C@H]3C2)CC1 [Compound 30R]
,1 to 50,0.306,2,1.95,3.42,< 3,≤ 1,20 to 100,CC(=O)N1CCC(N2CCN3c4c(C)cc(Nc5ncc(Cl)c(Nc6ccccc6P(C)(C)=O)n5)cc4OC[C@H]3C2)CC1 [Compound 32R]
,,0.015,4.33,3.97,0.179,< 3,≤ 1,20 to 100,CN1CCC(N2CCN3c4c(F)cc(Nc5ncc(Cl)c(Nc6ccccc6P(C)(C)=O)n5)cc4OC[C@@H]3C2)CC1 [Compound 35S]
